{"source": "patent US20170333388A1", "about": "“Therapeutic compound and its application in repairing diabetes-related cardiac injuries” (Numen Biotech Co., Ltd, priority 2016, published 2017)", "type_in_all_cases": "cell-based, rat", "key": {"[1]": {"system": "adipose-derived stem cells (ADSC)", "test": "Western blot of protein expression in ADSC preconditioned with EGCG", "procedure": "After the drug treatment, the culture medium was removed from the cells and rinsed with PBS buffer for three times; then 1 mL PBS was used to scrape the cells from the dish and the cells containing solution was placed in a centrifuge tube, and the solution was centrifuged by 12,000 rpm for 10 minutes, then the supernatant was removed, and the lysis buffer (50 mM Tris pH 7.5,0.5 M NaCl, 1.0 mM EDTA pH 7.5,1 mM BME, 1% NP40,10% glycerol, protease inhibitor cocktail table) was added and mixed. The mixture was placed on ice and shock once every 5 minutes for 30 minutes, and then the mixture was centrifuged at 12,000 g in 4° C. for 10 minutes, the upper layer was placed in a new tube to measure the protein concentration.\nAfter the drug treatment, the culture medium was removed from the cells and rinsed with PBS buffer for three times; then 1 mL PBS was used to scrape the cells from the dish and the cells containing solution was placed in a centrifuge tube, and the solution was centrifuged by 12,000 rpm for 10 minutes then the supernatant was removed and extraction buffer (50 mM Tris pH 7.5-0.5 M NaCl-1.0 mM EDTA pH 7.5-10% glycerol-protease inhibitor cocktail table) was added into the mill tube, then grinded on ice. And the homogenate was then placed in a new centrifuge tube to centrifuge at 4° C. by 12,000 rpm for 10 minutes, the upper layer was placed in a new centrifuge tube for measuring the protein concentration.\n[…] protein samples were added into a PBS solution, and 5× loading dye was added then mixed evenly and boiled for 10 minutes, then analyze by SDS-polyacrylamide slab gel electrophoresis. The upper layer of the SDS-polyacrylamide gel electrophoresis was 3.75% Stacking gel, and the lower layer was 5% and 12% Separating gel. The plastic plates was fixed to the electrophoresis apparatus and the electrophoresis buffer was filled into the electrophoresis tank, and then the treated protein sample was added into the U-shaped groove formed on a plastic plate, and undergo electrophoresis with 75 volts. […]"}, "[2]": {"system": "adipose-derived stem cells (ADSC)", "test": "transwell migration assay of ADSC in high glucose medium", "procedure": "The stem cells were divided into five different groups, which were: Group 1: stem cell group, Group 2: high glucose destroyed stem cell group, Group 3: EGCG (2.5 μM in concentration) precondition high glucose destroyed stem cell group, Group 4: EGCG (5 μM in concentration) precondition high glucose destroyed stem cell group, Group 5: EGCG (10 μM in concentration) precondition high glucose destroyed stem cell group. […] The migration ability of the five groups was: 63±10, 36±7, 55±5, 84±6 and 144±4, respectively. In comparison with the normal stem cell group (Group 1), the migration ability of the stem cells cultured in high glucose medium was decreased (Group 1>Group 2, p<0.05). In contrast, in comparison to the high glucose destroyed stem cells, the migration ability of stem cells was recovered under different EGCG concentration precondition (Group 2<Group 3, p<0.05; Group 2<Group 4, p<0.001; Group 2<Group 5, p<0.001). Then the migration ability of stem cells under different experiment conditions was tested. The more numbers of stem cells represents the stem cells have stronger migration ability under this experiment condition.\nDuring the analysis of protein expression level, the EGCG induced expression level of CXCR4 and p-Akt increase would be eliminated by siRNA CXCR4. […] The stem cells were divided into six groups in this test, which were: Group 1: stem cell group, Group 2: high glucose destroyed stem cell group, Group 3: EGCG (10 μM in concentration) precondition high glucose destroyed stem cell group, Group 4: siRNA CXCR4 (3 nM) was added in Group 3, Group 5: CXCR4 siRNA (10 nM) was added into Group 4. The numbers of migrated stem cells were 288±25, 36±7, 159±17, 84±6, 41±8 and 40±2 respectively."}, "[3]": {"system": "adipose-derived stem cells (ADSC)", "test": "stem cell proliferation (colony) experiment in high glucose medium", "conditions": "high glucose destroyed stem cells (33 mM glucose)", "procedure": "The adipose-derived stem cells were taken out from the abdominal adipose tissue of 8-month-old Wistar male rats via surgery. After cutting the adipose tissues into suitable sizes, the adipose tissues were washed by antibiotic containing saline. The washed adipose tissues were placed into a Type II collagenase (0.01%) containing saline, and were stirred and heated under 37° C. water bath for 1 hour. Then the adipose tissues were centrifuged by 3000 rpm under room temperature for 10 minute, the precipitants were extracted for cell culture in the culture dish.\nIn the aspect of stem cell proliferation experiment, the more the number of stem cell colonies in different experimental conditions represents for the better growth experiment condition for stem cells. The stem cells were divided into 5 different groups, which were: Group 1: stem cell group, Group 2: high glucose destroyed stem cell group, Group 3: EGCG (2.5 μM in concentration) precondition high glucose destroyed stem cell group, Group 4: EGCG (5 μM in concentration) precondition high glucose destroyed stem cell group, Group 5: EGCG (10 μM in concentration) precondition high glucose destroyed stem cell group. […] In comparison with the normal stem cell group (Group 1), the distribution of the stem cells colonies cultured in high glucose medium was inhibited (Group 1>Group 2, p<0.001). In contrast, in comparison to the high glucose destroyed stem cells, the stem cell colonies were recovered under different EGCG concentration precondition (Group 2<Group 3, p<0.05; Group 2<Group 4, p<0.05; Group 2<Group 5, p<0.01). Then the migration ability of stem cells under different experiment conditions was tested. The more numbers of stem cells represent the stem cells have stronger migration ability under this experiment condition."}, "[4]": {"conditions": "EGCG precondition at different concentrations vs high glucose destroyed stem cells"}}, "data": [{"smiles": "O=C(O[C@@H]1Cc2c(O)cc(O)cc2O[C@@H]1c1cc(O)c(O)c(O)c1)c1cc(O)c(O)c(O)c1", "note": "[EGCG, epigallocatechin gallate]", "values": [{"measurement": "apoptosis protein cytochrome-C expression level", "setting": "[1]; [4]", "result": "decreased"}, {"measurement": "migration protein (CXCR4) expression level", "setting": "[1]; [4]", "result": "recovered"}, {"measurement": "EGCG induced increase of CXCR4 and p-Akt expression level", "setting": "[1]; FIG. 6, in the presence of siRNA CXCR4", "result": "eliminated"}, {"measurement": "migration ability (numbers of migrated stem cells)", "setting": "[2]; FIG. 4, EGCG 2.5 μM precondition", "result": "55±5"}, {"measurement": "migration ability (numbers of migrated stem cells)", "setting": "[2]; FIG. 4, EGCG 5 μM precondition", "result": "84±6"}, {"measurement": "migration ability (numbers of migrated stem cells)", "setting": "[2]; FIG. 4, EGCG 10 μM precondition", "result": "144±4"}, {"measurement": "numbers of migrated stem cells", "setting": "[2]; FIG. 7, Group 3: EGCG 10 μM precondition", "result": "159±17"}, {"measurement": "numbers of migrated stem cells", "setting": "[2]; FIG. 7, Group 4: EGCG 10 μM precondition, siRNA CXCR4 3 nM added", "result": "84±6"}, {"measurement": "numbers of migrated stem cells", "setting": "[2]; FIG. 7, Group 5: EGCG 10 μM precondition, CXCR4 siRNA 10 nM added", "result": "41±8"}, {"measurement": "stem cell colonies", "setting": "[3]; EGCG 2.5 μM precondition", "result": "152±17"}, {"measurement": "stem cell colonies", "setting": "[3]; EGCG 5 μM precondition", "result": "178±22"}, {"measurement": "stem cell colonies", "setting": "[3]; EGCG 10 μM precondition", "result": "226±31"}]}]}
